Experimental data as given in paper PMC3961306, “Comparison of the Cancer Gene Targeting and Biochemical Selectivities of All Targeted Kinase Inhibitors Approved for Clinical Use” (PLoS ONE, 2014).

What was measured:
Assay in all cases: Kinase profiling in a biochemical assay panel (mobility shift assays and ELISA), %-inhibition at 1 μM; selectivity entropy
[1] = biological target: panel of more than 300 wild-type and mutant kinases (313 kinase panel) (Homo sapiens, UniProt P06241); conditions: kinase FYN; compound at 1 μM
panel of more than 300 wild-type and mutant kinases (313 kinase panel) (Homo sapiens, UniProt P06241), sequence (P06241 whole entry, change not shown): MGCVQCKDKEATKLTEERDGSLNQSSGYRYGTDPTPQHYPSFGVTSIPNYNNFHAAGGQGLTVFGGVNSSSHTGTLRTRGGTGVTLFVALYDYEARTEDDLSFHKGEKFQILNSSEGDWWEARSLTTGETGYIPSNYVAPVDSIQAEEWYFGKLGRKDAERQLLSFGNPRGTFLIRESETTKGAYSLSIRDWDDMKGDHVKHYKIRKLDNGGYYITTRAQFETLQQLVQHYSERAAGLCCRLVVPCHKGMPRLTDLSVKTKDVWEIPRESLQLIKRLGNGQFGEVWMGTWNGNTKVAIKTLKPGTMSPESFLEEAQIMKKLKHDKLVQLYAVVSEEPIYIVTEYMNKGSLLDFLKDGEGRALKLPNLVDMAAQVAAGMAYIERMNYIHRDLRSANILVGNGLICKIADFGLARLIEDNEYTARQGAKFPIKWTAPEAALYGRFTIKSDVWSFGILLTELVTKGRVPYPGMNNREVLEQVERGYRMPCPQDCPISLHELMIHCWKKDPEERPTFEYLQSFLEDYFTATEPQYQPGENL

[2] = biological target: panel of more than 300 wild-type and mutant kinases (313 kinase panel) (Homo sapiens, UniProt P22607); conditions: kinase FGFR3; compound at 1 μM
[3] = biological target: panel of more than 300 wild-type and mutant kinases (313 kinase panel) (Homo sapiens, UniProt Q02750); conditions: kinase MAP2K1; compound at 1 μM
[4] = biological target: panel of more than 300 wild-type and mutant kinases (313 kinase panel) (Homo sapiens, UniProt P22455, V550E); conditions: kinase FGFR4(V550E); compound at 1 μM
panel of more than 300 wild-type and mutant kinases (313 kinase panel) (Homo sapiens, UniProt P22455, V550E), sequence (P22455 22-802 V550E): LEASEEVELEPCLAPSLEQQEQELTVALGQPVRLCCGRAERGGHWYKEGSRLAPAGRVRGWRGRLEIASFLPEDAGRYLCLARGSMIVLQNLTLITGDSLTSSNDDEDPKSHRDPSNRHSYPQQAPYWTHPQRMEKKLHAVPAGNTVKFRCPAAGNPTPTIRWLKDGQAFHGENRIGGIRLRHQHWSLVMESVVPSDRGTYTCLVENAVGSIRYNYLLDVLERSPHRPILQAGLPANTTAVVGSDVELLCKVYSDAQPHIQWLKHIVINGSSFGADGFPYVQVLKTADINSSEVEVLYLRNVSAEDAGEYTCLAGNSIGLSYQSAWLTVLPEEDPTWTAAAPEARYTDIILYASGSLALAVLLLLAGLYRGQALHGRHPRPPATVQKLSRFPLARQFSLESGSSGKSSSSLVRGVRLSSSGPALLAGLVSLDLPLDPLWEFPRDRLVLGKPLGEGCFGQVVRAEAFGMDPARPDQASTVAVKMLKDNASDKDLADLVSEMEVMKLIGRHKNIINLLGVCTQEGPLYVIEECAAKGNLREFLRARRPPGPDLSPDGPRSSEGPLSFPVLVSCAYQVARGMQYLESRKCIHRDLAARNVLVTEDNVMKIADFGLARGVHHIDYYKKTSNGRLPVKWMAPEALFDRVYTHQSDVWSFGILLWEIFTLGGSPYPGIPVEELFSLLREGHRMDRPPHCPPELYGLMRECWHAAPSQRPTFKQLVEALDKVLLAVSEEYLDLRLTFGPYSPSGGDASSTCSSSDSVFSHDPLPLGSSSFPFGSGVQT

[5] = biological target: panel of more than 300 wild-type and mutant kinases (313 kinase panel) (Homo sapiens, UniProt P23458); conditions: kinase JAK1; compound at 1 μM
[6] = biological target: panel of more than 300 wild-type and mutant kinases (313 kinase panel) (Homo sapiens, UniProt P48729); conditions: kinase CK1α; 1 μM compound
[7] = biological target: panel of more than 300 wild-type and mutant kinases (313 kinase panel) (Homo sapiens, UniProt P49137); conditions: kinase MAPKAPK2; compound at 1 μM
panel of more than 300 wild-type and mutant kinases (313 kinase panel) (Homo sapiens, UniProt P49137), sequence (P49137 whole entry, change not shown): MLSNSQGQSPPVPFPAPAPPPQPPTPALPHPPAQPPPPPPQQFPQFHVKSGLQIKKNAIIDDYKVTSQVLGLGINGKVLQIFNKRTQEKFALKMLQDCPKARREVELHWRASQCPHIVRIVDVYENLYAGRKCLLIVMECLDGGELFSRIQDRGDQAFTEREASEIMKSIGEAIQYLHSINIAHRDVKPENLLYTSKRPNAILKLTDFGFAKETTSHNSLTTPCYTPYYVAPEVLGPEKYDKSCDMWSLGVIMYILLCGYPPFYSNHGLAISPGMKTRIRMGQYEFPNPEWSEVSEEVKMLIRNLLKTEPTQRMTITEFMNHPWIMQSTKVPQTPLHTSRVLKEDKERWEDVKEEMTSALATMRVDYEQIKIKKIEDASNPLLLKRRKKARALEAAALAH

[8] = biological target: panel of more than 300 wild-type and mutant kinases (313 kinase panel) (Homo sapiens, UniProt P49841); conditions: kinase GSK3β; compound at 1 μM
[9] = biological target: T1, panel of more than 300 wild-type and mutant kinases (313 kinase panel) (Homo sapiens, UniProt P52333); conditions: kinase JAK3; compound at 1 μM
T1 sequence (P52333 1-1124): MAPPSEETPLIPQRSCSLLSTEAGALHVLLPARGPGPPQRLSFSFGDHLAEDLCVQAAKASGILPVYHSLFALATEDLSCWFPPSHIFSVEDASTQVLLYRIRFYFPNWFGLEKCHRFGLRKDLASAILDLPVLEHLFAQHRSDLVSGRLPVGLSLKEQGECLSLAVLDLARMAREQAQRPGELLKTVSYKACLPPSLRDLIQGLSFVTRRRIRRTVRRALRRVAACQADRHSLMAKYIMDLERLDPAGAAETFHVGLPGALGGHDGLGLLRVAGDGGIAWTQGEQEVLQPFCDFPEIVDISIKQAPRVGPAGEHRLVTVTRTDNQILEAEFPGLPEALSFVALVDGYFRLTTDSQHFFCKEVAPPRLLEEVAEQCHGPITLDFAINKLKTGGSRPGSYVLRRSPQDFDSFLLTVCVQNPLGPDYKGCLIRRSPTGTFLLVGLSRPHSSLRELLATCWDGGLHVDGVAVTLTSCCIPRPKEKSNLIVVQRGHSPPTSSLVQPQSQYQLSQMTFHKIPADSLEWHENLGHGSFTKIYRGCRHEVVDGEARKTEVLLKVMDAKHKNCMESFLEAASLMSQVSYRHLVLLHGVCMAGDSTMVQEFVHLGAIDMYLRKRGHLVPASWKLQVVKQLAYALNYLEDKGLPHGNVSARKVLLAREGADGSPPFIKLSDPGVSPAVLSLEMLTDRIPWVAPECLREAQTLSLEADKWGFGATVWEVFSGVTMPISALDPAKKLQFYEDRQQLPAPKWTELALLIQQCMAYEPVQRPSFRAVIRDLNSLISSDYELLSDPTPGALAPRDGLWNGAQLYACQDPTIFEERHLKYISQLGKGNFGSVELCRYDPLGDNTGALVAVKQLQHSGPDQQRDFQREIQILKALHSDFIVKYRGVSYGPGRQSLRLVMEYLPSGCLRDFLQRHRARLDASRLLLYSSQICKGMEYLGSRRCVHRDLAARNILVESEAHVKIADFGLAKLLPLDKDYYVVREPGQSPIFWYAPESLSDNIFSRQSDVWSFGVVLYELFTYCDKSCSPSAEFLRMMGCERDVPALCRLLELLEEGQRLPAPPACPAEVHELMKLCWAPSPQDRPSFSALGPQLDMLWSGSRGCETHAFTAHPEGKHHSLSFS

[10] = biological target: panel of more than 300 wild-type and mutant kinases (313 kinase panel) (Homo sapiens, UniProt Q08345); conditions: kinase DDR1; compound at 1 μM
[11] = biological target: panel of more than 300 wild-type and mutant kinases (313 kinase panel) (Homo sapiens, UniProt Q15303)
panel of more than 300 wild-type and mutant kinases (313 kinase panel) (Homo sapiens, UniProt Q15303), sequence (Q15303 26-1308, change not shown): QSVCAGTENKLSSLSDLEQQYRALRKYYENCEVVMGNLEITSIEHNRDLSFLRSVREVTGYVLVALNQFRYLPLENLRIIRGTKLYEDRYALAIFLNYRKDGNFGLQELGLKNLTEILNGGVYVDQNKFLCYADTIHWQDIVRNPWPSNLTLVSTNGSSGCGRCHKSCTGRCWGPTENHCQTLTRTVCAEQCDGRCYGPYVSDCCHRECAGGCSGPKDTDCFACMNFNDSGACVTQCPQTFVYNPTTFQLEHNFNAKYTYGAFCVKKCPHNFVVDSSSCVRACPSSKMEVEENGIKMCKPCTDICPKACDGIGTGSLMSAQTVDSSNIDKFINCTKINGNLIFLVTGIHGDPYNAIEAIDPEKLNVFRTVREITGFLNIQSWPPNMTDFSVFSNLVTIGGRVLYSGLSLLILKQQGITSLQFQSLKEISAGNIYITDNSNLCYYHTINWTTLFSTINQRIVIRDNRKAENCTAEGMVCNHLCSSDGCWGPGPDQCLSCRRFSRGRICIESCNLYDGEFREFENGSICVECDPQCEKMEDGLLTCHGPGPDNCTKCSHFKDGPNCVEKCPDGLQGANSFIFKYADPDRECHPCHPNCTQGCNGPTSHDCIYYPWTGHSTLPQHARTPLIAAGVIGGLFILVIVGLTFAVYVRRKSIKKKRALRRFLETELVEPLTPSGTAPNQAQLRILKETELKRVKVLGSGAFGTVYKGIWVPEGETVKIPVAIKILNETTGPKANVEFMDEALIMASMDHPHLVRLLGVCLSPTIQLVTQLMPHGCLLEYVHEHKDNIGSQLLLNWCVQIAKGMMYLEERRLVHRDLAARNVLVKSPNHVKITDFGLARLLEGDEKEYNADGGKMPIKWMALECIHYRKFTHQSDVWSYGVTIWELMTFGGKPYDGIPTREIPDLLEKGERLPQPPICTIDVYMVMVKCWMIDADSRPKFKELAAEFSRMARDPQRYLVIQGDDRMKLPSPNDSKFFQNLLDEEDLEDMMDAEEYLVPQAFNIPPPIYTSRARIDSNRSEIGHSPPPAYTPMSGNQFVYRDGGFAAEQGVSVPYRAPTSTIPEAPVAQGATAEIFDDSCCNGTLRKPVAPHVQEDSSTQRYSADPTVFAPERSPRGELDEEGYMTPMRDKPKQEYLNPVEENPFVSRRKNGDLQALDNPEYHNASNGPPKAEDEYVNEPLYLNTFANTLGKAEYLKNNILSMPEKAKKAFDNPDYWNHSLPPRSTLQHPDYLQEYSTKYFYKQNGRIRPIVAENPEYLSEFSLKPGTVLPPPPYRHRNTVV

[12] = biological target: panel of more than 300 wild-type and mutant kinases (313 kinase panel) (Homo sapiens, UniProt Q16539); conditions: kinase p38α; 1 μM
panel of more than 300 wild-type and mutant kinases (313 kinase panel) (Homo sapiens, UniProt Q16539), sequence (Q16539 whole entry, change not shown): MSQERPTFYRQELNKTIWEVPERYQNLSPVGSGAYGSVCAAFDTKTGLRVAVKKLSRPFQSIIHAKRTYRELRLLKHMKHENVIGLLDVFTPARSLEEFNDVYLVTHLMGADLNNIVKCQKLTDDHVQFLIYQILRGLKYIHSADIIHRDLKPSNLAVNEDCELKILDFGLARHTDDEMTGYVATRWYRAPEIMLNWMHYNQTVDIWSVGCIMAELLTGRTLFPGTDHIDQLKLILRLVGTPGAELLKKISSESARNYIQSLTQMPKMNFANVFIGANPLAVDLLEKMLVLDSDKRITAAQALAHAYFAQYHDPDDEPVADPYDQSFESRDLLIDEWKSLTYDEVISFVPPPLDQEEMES

[13] = biological target: panel of more than 300 wild-type and mutant kinases (313 kinase panel) (Homo sapiens, UniProt Q9Y3S1); conditions: kinase WNK2; compound at 1 μM
[14] = biological target: panel of more than 300 wild-type and mutant kinases (313 kinase panel) (Homo sapiens, UniProt P08581, Y1235D); conditions: kinase MET(Y1235D); compound at 1 μM
panel of more than 300 wild-type and mutant kinases (313 kinase panel) (Homo sapiens, UniProt P08581, Y1235D), sequence (P08581 25-1390 Y1235D): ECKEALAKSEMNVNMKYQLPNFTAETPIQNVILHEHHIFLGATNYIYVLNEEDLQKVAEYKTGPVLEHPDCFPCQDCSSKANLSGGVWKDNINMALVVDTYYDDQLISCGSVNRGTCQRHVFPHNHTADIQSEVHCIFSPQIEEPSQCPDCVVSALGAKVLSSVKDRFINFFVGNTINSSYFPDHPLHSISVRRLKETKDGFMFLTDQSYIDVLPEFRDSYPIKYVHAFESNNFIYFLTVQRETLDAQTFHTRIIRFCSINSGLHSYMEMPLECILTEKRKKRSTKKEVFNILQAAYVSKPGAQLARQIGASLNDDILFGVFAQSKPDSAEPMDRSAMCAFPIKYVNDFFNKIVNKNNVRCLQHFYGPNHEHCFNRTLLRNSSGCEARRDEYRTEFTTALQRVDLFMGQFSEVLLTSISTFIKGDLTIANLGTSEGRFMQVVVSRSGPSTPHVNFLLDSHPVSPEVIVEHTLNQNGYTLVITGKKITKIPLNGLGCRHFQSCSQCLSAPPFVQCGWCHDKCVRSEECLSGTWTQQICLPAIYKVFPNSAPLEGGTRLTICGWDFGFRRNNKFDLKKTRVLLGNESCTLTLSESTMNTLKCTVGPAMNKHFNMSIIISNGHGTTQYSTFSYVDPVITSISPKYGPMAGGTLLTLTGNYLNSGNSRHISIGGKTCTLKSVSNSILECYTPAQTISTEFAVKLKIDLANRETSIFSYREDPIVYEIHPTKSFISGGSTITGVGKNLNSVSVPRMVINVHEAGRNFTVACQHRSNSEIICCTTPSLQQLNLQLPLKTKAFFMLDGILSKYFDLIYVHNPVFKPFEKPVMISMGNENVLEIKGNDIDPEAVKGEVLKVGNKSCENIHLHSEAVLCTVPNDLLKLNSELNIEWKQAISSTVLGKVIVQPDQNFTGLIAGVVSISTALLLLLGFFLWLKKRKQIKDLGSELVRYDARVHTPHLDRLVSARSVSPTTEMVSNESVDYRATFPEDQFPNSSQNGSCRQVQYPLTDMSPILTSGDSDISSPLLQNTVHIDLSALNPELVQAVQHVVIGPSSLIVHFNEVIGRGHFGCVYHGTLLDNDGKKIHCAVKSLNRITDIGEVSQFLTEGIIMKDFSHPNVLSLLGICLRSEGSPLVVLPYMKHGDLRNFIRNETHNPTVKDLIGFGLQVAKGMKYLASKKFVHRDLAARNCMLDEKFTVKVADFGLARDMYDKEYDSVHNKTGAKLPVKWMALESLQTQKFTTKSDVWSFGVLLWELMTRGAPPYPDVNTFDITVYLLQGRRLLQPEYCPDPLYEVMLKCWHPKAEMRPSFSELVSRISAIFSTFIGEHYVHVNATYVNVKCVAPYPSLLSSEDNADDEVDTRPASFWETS

CCN(CC)CCNC(=O)c1c(C)[nH]c(/C=C2\C(=O)Nc3ccc(F)cc32)c1C [sunitinib]
%-inhibition of FYN [1]: 88% | %-inhibition of FGFR3 [2]: 97% | %-inhibition of MAP2K1 [3]: 89%

COc1cc2nccc(Oc3ccc(NC(=O)C4(C(=O)Nc5ccc(F)cc5)CC4)cc3)c2cc1OC [cabozantinib]
%-inhibition of FYN [1]: 91% | %-inhibition of FGFR4(V550E) [4]: -4% | %-inhibition of FGFR3 [2]: 8% | %-inhibition of JAK1 [5]: -1.59% | %-inhibition, CK1α [6]: -9% | %-inhibition of MAPKAPK2 [7]: -17% | %-inhibition of GSK3β [8]: -3.51% | %-inhibition of JAK3 [9]: 2.34% | %-inhibition of MAP2K1 [3]: 82% | %-inhibition of DDR1 [10]: 102% | %-inhibition of HER4 ([11]; kinase HER4, compound at 1 μM): 23% | %-inhibition of p38α [12]: 37% | %-inhibition of WNK2 [13]: 6.43%

CC(C)(C)c1nc(-c2cccc(NS(=O)(=O)c3c(F)cccc3F)c2F)c(-c2ccnc(N)n2)s1 [dabrafenib]
%-inhibition of MET(Y1235D) [14]: 25% | %-inhibition of FGFR4(V550E) [4]: -5% | %-inhibition of FGFR3 [2]: 4.27% | %-inhibition of JAK1 [5]: 5.7% | %-inhibition, CK1α [6]: 13% | %-inhibition of JAK3 [9]: 22% | %-inhibition of DDR1 [10]: 96% | %-inhibition of HER4 ([11]; kinase HER4, compound at 1 μM): 23% | %-inhibition of WNK2 [13]: 0.686%

C[C@@H](Oc1cc(-c2cnn(C3CCNCC3)c2)cnc1N)c1c(Cl)ccc(F)c1Cl [crizotinib]
%-inhibition of FYN [1]: 42% | %-inhibition of FGFR4(V550E) [4]: -0.358% | %-inhibition of FGFR3 [2]: 43% | %-inhibition of JAK1 [5]: 47% | %-inhibition, CK1α [6]: -1.36% | %-inhibition of MAPKAPK2 [7]: -17% | %-inhibition of GSK3β [8]: -2.11% | %-inhibition of JAK3 [9]: 77% | %-inhibition of MAP2K1 [3]: 0.819% | %-inhibition of DDR1 [10]: 97% | %-inhibition of HER4 ([11]; kinase HER4, compound at 1 μM): -18% | %-inhibition of p38α [12]: -2.27% | %-inhibition of WNK2 [13]: -4%

COc1cc2c(Nc3ccc(Br)cc3F)ncnc2cc1OCC1CCN(C)CC1 [vandetanib]
%-inhibition of FYN [1]: 88% | %-inhibition of FGFR4(V550E) [4]: -0.358% | %-inhibition of JAK1 [5]: -3.31% | %-inhibition, CK1α [6]: -3.59% | %-inhibition of MAPKAPK2 [7]: -20% | %-inhibition of GSK3β [8]: -3.71% | %-inhibition of JAK3 [9]: 2.34% | %-inhibition of MAP2K1 [3]: 10% | %-inhibition of DDR1 [10]: 100% | %-inhibition of p38α [12]: 18% | %-inhibition of WNK2 [13]: -4.29%

Cc1ccc(C(=O)Nc2ccc(CN3CCN(C)CC3)c(C(F)(F)F)c2)cc1C#Cc1cnc2cccnn12 [ponatinib]
%-inhibition of FYN [1]: 101% | %-inhibition of FGFR4(V550E) [4]: -1.79% | %-inhibition of FGFR3 [2]: 101% | %-inhibition of JAK1 [5]: 99% | %-inhibition, CK1α [6]: 8% | %-inhibition of JAK3 [9]: 98% | %-inhibition of HER4 ([11]; kinase HER4, compound at 1 μM): 101% | %-inhibition of p38α [12]: 101% | %-inhibition of WNK2 [13]: 13%

Cc1ccc(Nc2nccc(N(C)c3ccc4c(C)n(C)nc4c3)n2)cc1S(N)(=O)=O [pazopanib]
%-inhibition of JAK1 [5]: 9% | %-inhibition, CK1α [6]: -4% | %-inhibition of MAPKAPK2 [7]: -2.44% | %-inhibition of JAK3 [9]: 38% | %-inhibition of MAP2K1 [3]: 2.11% | %-inhibition of DDR1 [10]: 97% | %-inhibition of HER4 ([11]; kinase HER4, compound at 1 μM): 16% | %-inhibition of p38α [12]: 10% | %-inhibition of WNK2 [13]: 3%

Cc1nc(Nc2ncc(C(=O)Nc3c(C)cccc3Cl)s2)cc(N2CCN(CCO)CC2)n1 [dasatinib]
%-inhibition of FYN [1]: 100% | %-inhibition, CK1α [6]: -8.44% | %-inhibition of HER4 ([11]; kinase HER4, compound at 1 μM): 103% | %-inhibition of p38α [12]: 91% | %-inhibition of WNK2 [13]: 20%

COc1cc(Nc2c(C#N)cnc3cc(OCCCN4CCN(C)CC4)c(OC)cc23)c(Cl)cc1Cl [bosutinib]
%-inhibition of FYN [1]: 95% | %-inhibition of MET(Y1235D) [14]: 14% | %-inhibition of FGFR4(V550E) [4]: -3.46% | %-inhibition of JAK1 [5]: -2% | %-inhibition of JAK3 [9]: 67% | %-inhibition of DDR1 [10]: 97% | %-inhibition of HER4 ([11]; kinase HER4, compound at 1 μM): 102% | %-inhibition of p38α [12]: 9% | %-inhibition of WNK2 [13]: 4%

CS(=O)(=O)CCNCc1ccc(-c2ccc3ncnc(Nc4ccc(OCc5cccc(F)c5)c(Cl)c4)c3c2)o1 [lapatinib]
%-inhibition of FYN [1]: 1.29% | %-inhibition of MET(Y1235D) [14]: 2% | %-inhibition of FGFR3 [2]: 0.327% | %-inhibition of JAK1 [5]: -3% | %-inhibition, CK1α [6]: 3.6% | %-inhibition of GSK3β [8]: -10% | %-inhibition of JAK3 [9]: -6% | %-inhibition of MAP2K1 [3]: 21% | %-inhibition of DDR1 [10]: 33% | %-inhibition of HER4 ([11]; 1 µM): 102% | %-inhibition of p38α [12]: -3% | %-inhibition of WNK2 [13]: -5%
